Reference: article PMC9609273 (Pharmaceuticals, 2022)
Read-outs that look alike come from different tables or passages of the source.

How the values were obtained:
[1] = test system: katG S315T mutant INH-resistant Mtb clinical isolate; assay type: cell-based, Mycobacterium tuberculosis
[2] = test system: inhA promoter mutant INH-resistant Mtb clinical isolate; assay type: cell-based, Mycobacterium tuberculosis
[3] = target: enoyl acyl carrier protein reductase (InhA) (Mycobacterium tuberculosis, UniProt P9WGR1); assay type: biochemical
enoyl acyl carrier protein reductase (InhA), sequence (P9WGR1 whole entry, looked up): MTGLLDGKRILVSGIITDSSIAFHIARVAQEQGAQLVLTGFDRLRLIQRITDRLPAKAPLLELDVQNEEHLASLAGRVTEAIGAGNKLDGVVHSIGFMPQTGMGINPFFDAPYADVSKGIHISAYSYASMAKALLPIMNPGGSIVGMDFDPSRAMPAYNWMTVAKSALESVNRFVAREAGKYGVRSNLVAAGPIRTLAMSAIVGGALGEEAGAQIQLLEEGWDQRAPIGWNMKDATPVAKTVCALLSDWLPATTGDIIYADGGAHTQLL

Compound | MIC katG + [1] | MIC inhA + [2] | % Inhibition of InhA ([3]; 50 µM compound) | % Inhibition of InhA ([3]; 50 µM)
3-((2-Isonicotinoylhydrazono)methyl)phenyl 2,4,6-trimethylbenzenesulfonate [SIH3] | 50 µM | 6.25 µM |  | 
3-((2-Isonicotinoylhydrazono)methyl)phenyl 2,5-dichlorobenzenesulfonate [SIH8] | 12.5 µM | 3.12 µM |  | 
3-((2-Isonicotinoylhydrazono)methyl)phenyl 3-nitrobenzenesulfonate [SIH10] | 12.5 µM | 3.12 µM | 17% | 
3-((2-Isonicotinoylhydrazono)methyl)phenyl 4-(tert-butyl)benzenesulfonate [SIH2] | 25 µM | 1.56 µM | 25% | 
3-((2-Isonicotinoylhydrazono)methyl)phenyl 4-acetamidobenzenesulfonate [SIH11] | 12.5 µM | 3.12 µM | 10% | 
3-((2-Isonicotinoylhydrazono)methyl)phenyl 4-bromobenzenesulfonate [SIH5] | 25 µM |  | 33% | 
3-((2-Isonicotinoylhydrazono)methyl)phenyl 4-chlorobenzenesulfonate [SIH6] | >100 µM |  | 23% | 
3-((2-Isonicotinoylhydrazono)methyl)phenyl 4-iodobenzenesulfonate [SIH7] | >100 µM | 6.25 µM | 41% | 
3-((2-Isonicotinoylhydrazono)methyl)phenyl 4-methoxybenzenesulfonate [SIH4] | 6.25 µM | 1.56 µM | 5% | 
3-((2-Isonicotinoylhydrazono)methyl)phenyl 4-methylbenzenesulfonate [SIH1] | 50 µM | 1.56 µM | 12% | 
3-((2-Isonicotinoylhydrazono)methyl)phenyl 4-nitrobenzenesulfonate [SIH9] | 25 µM | 3.12 µM | 8% | 
3-((2-Isonicotinoylhydrazono)methyl)phenyl [1,1′-biphenyl]-4-sulfonate [SIH12] | 12.5 µM | 3.12 µM | 31% | 
3-((2-Isonicotinoylhydrazono)methyl)phenyl quinoline-8-sulfonate [SIH13] | 12.5 µM | 3.12 µM |  | 22%
NNC(=O)c1ccncc1 [Isoniazid, isonicotinic acid hydrazide, reference compound] | 6.25 µM | 1.56 µM |  | 
